Source: US20190328721A1, “METHOD OF ACTIVATING DENDRITIC CELLS” (KOREA INSTITUTE OF SCIENCE AND TECHNOLOGY, priority 2018, published 2019)

Tests used:
[1] = test system: bone marrow-derived macrophages (BMDMs); assay: Phagocytosis of cancer cells by bone marrow-derived macrophages in vitro; format: cell-based, mice
Experimental: (§1) Specifically, the present inventors prepared bone marrow-derived macrophages (BMDMs) differentiated from excised bone marrow of mice using M-CSF and bone marrow-derived dendritic cells (BMDCs) differentiated from excised bone marrow using Flt3L. The degree of differentiation was confirmed by flow cytometry analysis using antibodies specifically binding to F4/80 (BMDM marker) and CD11c (BMDC marker), respectively (FIGS. 2A and 2B).
(§2) The prepared BMDMs and BMDCs were stained with 1 μM CellTracker Deep Red (Thermo Fisher Scientific, USA). 30 μM of Y27632 (Abcam, USA) or 30 μM of fasudil (Selleck Chemicals, USA) was added to each of 15×10^4 cells/ml of the stained macrophages and dendritic cells and incubated at 37° C. for 1 hour. As a negative control, macrophages or dendritic cells that were not incubated with Y27632 and fasudil were used.
(§3) Bone marrow-derived macrophages or dendritic cells prepared in RPMI medium and cancer cell lines stained with 1 μM CellTracker CMFDA (Thermo Fisher Scientific, USA) were co-cultured at about 37° C. for about 2 hours. CT26.CL25, a colon cancer cell line, and B16F10-OVA, a melanoma cell line, were used as the cancer cells.
(§4) Thereafter, the percentage of cancer cells was measured by flow cytometry, and the phagocytosis ratio of macrophages and dendritic cells against cancer cells was calculated. The results are shown in FIGS. 2C to 2F (left: cancer cell line CT26.CL25, right: cancer cell line B16F10-OVA).
(§5) In order to more accurately analyze the phagocytosis of macrophages and dendritic cells against cancer cells according to the treatment of the ROCK inhibitor, the present inventors analyzed phagocytosis of the BMDMs and BMDCs against CT26.CL25 colon cancer cells using the pHrodo-SE dye, which changes in fluorescence depending on pH. When […], the pH of the cancer cells decreased and became red. When treated with Y27632 as described above for the above-mentioned phagocytosis response, the phagocytic activities of both the BMDMs and BMDCs against cancer cells were improved.
(§6) The present inventors performed an experiment to confirm how long the phagocytosis of BMDMs and BMDCs against cancer cells due to the ROCK inhibitor is maintained. Specifically, BMDMs and BMDCs were pretreated with Y27632 for 1 hour, then Y27632 was removed, and immediately after 30 minutes, 1 hour, 2 hours, or 4 hours, the phagocytosis against CT26.CL25 and B16F10-Ova was measured using a flow cytometer. The other experimental conditions were the same as in Example 1-1.
(§7) In order to confirm whether the ROCK inhibitor increases phagocytosis against cancer cells by acting on phagocytic cells (BMDMs or BMDCs) themselves, Y27632 was used to pretreat the phagocytic cells or cancer cells for 1 hour, and the phagocytic activity was analyzed using the same procedure described in Example 1-1.
The present inventors identified through the above-mentioned results that Y27632 promotes phagocytic cells against cancer cells by inhibiting ROCK in the phagocytic cells. In order to elucidate a more detailed mechanism related to the increase of phagocytic activity by ROCK inhibitors, the present inventors analyzed phagocytosis of the phagocytic cells against cancer cells using blebbistatin (Sigma-Aldrich, USA), which can inhibit the movement of myosin light chain, which exist downstream of ROCK signaling pathway, according to the method described in Example 1-1.
Bone marrow-derived macrophages (BMDMs) treated with 30 μM of fasudil were co-cultured with B16F10-Ova malignant melanoma cells for 1 hour and the phagocytic activity of the BMDMs against apoptotic cancer cells was analyzed by flow cytometry analysis. In order to induce immunogenic apoptosis, 2.5 μM mitoxantrone (Sigma-Aldrich, USA) was administered with B16F10-Ova cells stained with CellTracker Deep Red (Thermo Fisher Scientific, USA) for 4 hours. […]

[2] = test system: bone marrow-derived dendritic cells (BMDCs); assay: Phagocytosis of cancer cells by bone marrow-derived dendritic cells in vitro; format: cell-based, mice; conditions: method of Example 1-1; CT26.CL25 and B16F10-Ova
Experimental: as §1, §2, §3, §4, §5, §6
as §7, with “1-1. […]” for “1-1.”
Phagocytic activity of bone marrow-derived dendritic cells (BMDCs) differentiated from bone marrow cells against cancer cells was analyzed by treating the BMDCs with ROCK inhibitor Y27632 (30 μM) for 1 hour and then co-cultivating with CT26.CL25 colon cancer cells pretreated with 25 μM of doxorubicin for 24 hours or B16F10-Ova malignant melanoma cells treated with 30 μM of Y27632 for 1 hour and then treated with 2.5 μM doxorubicin (Sigma-Aldrich, USA) for 24 hours by pHrodo SE (Thermo Fisher Scientific, USA) staining (BMDC:Dox-treated B16F10-Ova=1:1). As shown in FIGS. 16A to 16D, it was confirmed that the phagocytic activity of BMDCs induced by doxorubicin were increased in the Y27632-treated group compared to the control group (FIGS. 16A to 16D). […]

[3] = test system: dendritic cells; assay: Flow cytometry of dendritic cells from B16F10-Ova-bearing mice (maturation, subsets, cross presentation); format: in vivo; conditions: tumor-draining lymph nodes
Experimental: To confirm the effect of the ROCK inhibitor Y27632 on the maturation process of dendritic cells, the inventors administered Y27362 to B16F10-Ova-bearing cancer model animals according to the same administration schedule as in Example 2-1, and the expression of CD40 and CD86, which are dendritic cell maturation markers, was analyzed by flow cytometry.
Recently, it has been shown that CD103 (corresponding to CD141 in humans)-positive dendritic cells (CD103 DC) play an important role in cancer cell phagocytosis and T cell anticancer immunity among dendritic cells (Broz et al., Cancer Cell, 26 (5): 638-652, 2014). Therefore, in order to analyze the effect of the ROCK inhibitor on CD103 DC, Y27632 was administered to B16F10-Ova-bearing cancer model mice according to the administration schedule described in the above Example 2-1, tumor tissues and tumor-draining lymph nodes were excised, and then flow cytometry analysis was performed using antibodies specifically binding to dendritic cell markers (CD11b, CD103 and CD8). It was confirmed that the ratio of CD103 DC was increased by Y27632 in both the tumor-draining lymph nodes (FIG. 15A) and the tumor tissues (FIG. 15B). On the other hand, in the case of CD11b-positive and CD8-positive dendritic cells, no change due to administration of Y27632 was observed.
The present inventors analyzed cross presentation activity which is one of functions of dendritic cells via flow cytometry analysis using an antibody capable of detecting a cancer antigen (H-2K^b-Ova) capable of activating T cells, through flow cytometry analysis using an antibody (H-2K^b monoclonal antibody, Invitrogen, USA). It was confirmed that the cross presentation of CD103 DC was increased by Y27632 in both tumor-draining lymph nodes (FIG. 15C) and tumor tissues (FIG. 15D).
Further, the present inventors analyzed CD40, which is one of the markers of dendritic cell function capable of activating T cells and a DC maturation marker of dendritic cells, by flow cytometry analysis using anti-CD40 antibodies. As shown in FIGS. 15E and 15F, it was confirmed that the maturation of CD103 DC was increased by Y27632 in the tumor-draining lymph nodes.
The present inventors analyzed a series of immunological induction processes occurring after the phagocytosis against cancer cells or cancer-specific antigens in order to analyze the mechanism of the combination therapy for the anti-cancer immune response. Specifically, in order to confirm the effect of the combination therapy on the dendritic cell maturation, Y27632 and doxorubicin were administered to B16F10-Ova-bearing cancer model mice as described above, and then tumor-draining lymph nodes were isolated and the expression of CD40 and CD86, which are dendritic cell maturation markers, was analyzed by flow cytometry analysis.
Further, in order to confirm the effect of the combined treatment on the cross presentation process to the dendritic cells, the present inventors administered Y27632 and doxorubicin to B16F10-Ova-bearing cancer model mice as described above, isolated the tumor-draining lymph nodes, and then cross presentation activity, which is one of functions of dendritic cells, was analyzed via flow cytometry analysis using an antibody capable of detect a cancer antigen (H-2K^b-Ova) capable of activating T cells, through flow cytometry analysis using an antibody (H-2K^b monoclonal antibody, Invitrogen, USA).
The present inventors then investigated the effect of the combination of the drugs on the maturation process of dendritic cells. Specifically, the tumor-draining lymph nodes were isolated after administration of Y27632 and/or cisplatin in the B16F10-Ova-bearing cancer model, and the expression level of CD40 and CD86, the dendritic cell maturation markers, was analyzed by flow cytometry. As shown in FIG. 19C and 19D, there was no influence on the maturation of dendritic cells when Y27632 alone, cisplatin alone, or the combination of the two were administered (FIGS. 19C and 19D). […]

[4] = test system: MMTV/Neu mice tumors; assay: Spontaneous cancer development model; format: in vivo; conditions: anti-CD8 fluorescence immunohistochemistry
Experimental: The survival rate was recorded over up to 100 days. When the size of tumor was over 2,500 mm^3, the animal was euthanized (FIG. 20C).
Specifically, fluorescence immunohistochemical analysis was performed using anti-CD8 antibodies in the cancer tissues after the end of the experiment.
Accordingly, the present inventors investigated whether the combination of the drugs can increase the anti-cancer immunity even in the spontaneous cancer development model. […] After completion of the experiment, the present inventors isolated the spleen cells and treated with peptide against rat-Neu, an antigen expressed in the cancer of the spontaneous cancer development model, and after 48 hours, the culture supernatant was collected and IFN-γ was quantified using an ELISA kit (R&D Systems, Inc, USA).

[5] = test system: B16F10-Ova; assay: B16F10-Ova tumor model, Y27632 combined with a chemotherapeutic; format: in vivo, mice; conditions: doxorubicin 5 mg/kg, Y27632 10 mg/kg
Experimental: Specifically, tumor suppression was examined by administering 5 mg/kg of doxorubicin and 10 mg/kg of Y27632 alone or in combination to B16F10-Ova-bearing tumor model mice prepared as in Example 2-1. Doxorubicin was administered three times at intervals of 3 days from the 8th day after the injection of cancer cells, and Y27632 was administered at a dose of 10 mg/kg continuously for two consecutive days via intravenous injection followed by a day of rest as a cycle, followed by 3 cycles of 3-day intervals (FIG. 18A). The mice were sacrificed on the 20th day after the injection of cancer cells, the tumor tissue was excised, and ex vivo images were taken and the tumor tissues were weighed. Before the sacrifice of the mice, the tumor volumes over time were calculated as described above using calipers at intervals of 3 days from the 8th day after the injection of the cancer cells.
In order to confirm whether CD8^+ T cells infiltrates into tumor tissues, tumor tissues excised from an experimental animal were sectioned and subjected to fluorescence immunohistochemistry using anti-CD8 antibodies.
First, to determine the cisplatin therapeutic concentration, a B16F10-Ova tumor model was constructed in a nude mouse lacking T cell immunity and then an experiment was conducted to confirm the concentration of cisplatin having an anticancer effect similar to that of doxorubicin at 5 mg/kg. […] Thus, in order to evaluate the therapeutic effect of cisplatin and the ROCK inhibitor Y27632 in the B16F10-Ova-bearing tumor model, 3 mg/kg of cisplatin was administered according to the administration schedule shown in FIG. 18A.

[6] = test system: bone marrow-derived dendritic cells (BMDC); assay: Cross presentation of H-2Kb-Ova by BMDCs in vitro; format: cell-based, mice; conditions: Y27632 30 μM, 1 hour on BMDCs; cancer cells doxorubicin treated or untreated
Experimental: Furthermore, the inventors investigated whether the cross presentation of dendritic cells was promoted by the combination treatment of doxorubicin and Y27632. To this end, the present inventors used 30 μM of Y27632 to pretreat bone marrow-derived dendritic cells (BMDC) stained with CellTracker CMFDA (Thermo Fisher Scientific, USA) for 1 hour, followed by treatment with doxorubicin treated B16F10-Ova cells or doxorubicin untreated B16F10-Ova cells. After the co-culture, floating cancer cells were removed by withdrawing supernatant. Cross presentation activity, which is one of functions of dendritic cells, was analyzed via flow cytometry analysis using an antibody capable of detect a cancer antigen (H-2K^b-Ova) capable of activating T cells, through flow cytometry analysis using an antibody (H-2K^b monoclonal antibody, Invitrogen, USA).

[7] = test system: CT26 cancer cells; assay: CT26 tumor model; format: in vivo, mice; conditions: fasudil 20 mg/kg; Y27632 10 mg/kg
Experimental: The same procedure as described above was repeated except that CT26 was used instead of the CT26.CL25 colon cancer cell line and fasudil (Selleck Chemicals, USA) at 20 mg/kg of body weight or Y27632 at 10 mg/kg of body weight was administered.

[8] = test system: B16F10 cancer cells; assay: B16F10 tumor model, ripasudil, PDT and anti-PD-L1 antibodies; parameters: species or system C57BL/6 wild-type mice; conditions: mouse, in vivo
[9] = test system: bone marrow-derived dendritic cells (BMDCs); assay: Phagocytosis of cancer cells by bone marrow-derived dendritic cells in vitro; format: cell-based, mice; conditions: 30 μM, 1 hour; B16F10; co-cultivated 30 min
[10] = doxorubicin 5 mg/kg, Y27632 10 mg/kg

Structure (SMILES): Cc1ccc2c(c1)C(=O)C1(O)CCN(c3ccccc3)C1=N2 (stereo not drawn) [blebbistatin]
- phagocytic action of phagocytic cells against cancer cells (BMDMs) ([1]; method of Example 1-1, CT26.CL25 and B16F10-Ova): significantly enhance
- phagocytic action of phagocytic cells against cancer cells (BMDCs) [2]: significantly enhance

Structure (SMILES): N.N.[Cl][Pt][Cl] [cisplatin]
- cross-presentation function (H-2Kb-Ova) of dendritic cells ([3]; cisplatin study): no effect
- maturation of dendritic cells (CD40 and CD86) ([3]; cisplatin study): no influence

Structure (SMILES): COc1cccc2c1C(=O)c1c(O)c3c(c(O)c1C2=O)C[C@@](O)(C(=O)CO)C[C@@H]3O[C@H]1C[C@H](N)[C@H](O)[C@H](C)O1 [doxorubicin]
- CD8+ T cells in tumor tissues (infiltration) [4]: some T cell infiltration
- complete regression of the tumor [5]: not observed
- infiltration of CD8+ T cells into tumor tissues [5]: slight infiltration
- cross presentation (H-2Kb-Ova) of BMDCs co-cultured with B16F10-Ova cells [6]: increased the cross-presentation
- antigenic cross presentation (H-2Kb-Ova) in the dendritic cells [3, 10]: did not significantly increase
- dendritic cell maturation (expression of CD40 and CD86) [3, 10]: no effect

Structure (SMILES): O=S(=O)(c1cccc2cnccc12)N1CCCNCC1 [fasudil]
- growth of cancer (size of the tumor) [7]: inhibited the growth of cancer similarly to Y27632
- phagocytosis of BMDMs against cancer cells in immunogenic cell death induced by mitoxantrone ([1]; 30 μM, 1 hour, B16F10-Ova treated with 2.5 μM mitoxantrone, compared with control): significant increase

Structure (SMILES): C[C@H]1CNCCCN1S(=O)(=O)c1cccc2cncc(F)c12 [ripasudil]
- CD40 and CD86 on dendritic cells of tumor draining lymph nodes [8]: No increased expression
- phagocytic activity of BMDCs against PDT-treated cancer cells [9]: significantly increased
- phagocytic activity of BMDMs against PDT-treated cancer cells ([1]; 30 μM, 1 hour, B16F10, co-cultivated 30 min): significantly increased
